Data set [1] concerns the target T1, Tyrosine-protein kinase BTK (Homo sapiens, UniProt Q06187, C481S). Put plainly: Inhibition of BTK C481S mutant (unknown origin).
In data set [2] the target is T2, Tyrosine-protein kinase BTK (Homo sapiens, UniProt Q06187). Put plainly: Inhibition of wild-type BTK (unknown origin).
Data set [3] can be described thus: Inhibition of BTK C481Y mutant (unknown origin). On the set-up: species or system Homo sapiens.
The nature of data set [4]: Inhibition of cell proliferation in human HBL1 cells harboring Ibrutinib-resistant BTK C481S mutant assessed as cell growth inhibition. It is filed as functional.
Data set [5] deals with Protein cereblon/Tyrosine-protein kinase BTK (Homo sapiens, UniProt Q06187+Q96SW2). Put plainly: PROTAC activity at CRBN/BTK (unknown origin) assessed as BTK degradation. It is filed as protein assay.
Data set [6] concerns the target T2, Tyrosine-protein kinase BTK. The data set can be described thus: Inhibition of BTK (unknown origin).
Data set [7] addresses von Hippel-Lindau disease tumor suppressor/Tyrosine-protein kinase BTK (Homo sapiens, UniProt Q06187+P40337). Put plainly: PROTAC activity at VHL/BTK (unknown origin) assessed as induction of BTK degradation. It is filed as protein assay.
The nature of data set [8]: Intrinsic clearance in mouse. It is filed as ADME, organism-based. The conditions noted are these: in vivo.
Data set [9] concerns the target T2, Tyrosine-protein kinase BTK. The data set can be described thus: Induction of degradation of BTK in human Ramos cells at 100 nM relative to control. Format: cell-based.
For data set [10] the target is unchanged. Put plainly: Induction of degradation of BTK in human Ramos cells at 10 nM relative to control. It is filed as cell-based.
Data set [11] concerns the target T1, Tyrosine-protein kinase BTK. Put plainly: Induction of degradation of Ibrutinib-resistant BTK C481S mutant (unknown origin).

T2 sequence (Q06187 whole entry): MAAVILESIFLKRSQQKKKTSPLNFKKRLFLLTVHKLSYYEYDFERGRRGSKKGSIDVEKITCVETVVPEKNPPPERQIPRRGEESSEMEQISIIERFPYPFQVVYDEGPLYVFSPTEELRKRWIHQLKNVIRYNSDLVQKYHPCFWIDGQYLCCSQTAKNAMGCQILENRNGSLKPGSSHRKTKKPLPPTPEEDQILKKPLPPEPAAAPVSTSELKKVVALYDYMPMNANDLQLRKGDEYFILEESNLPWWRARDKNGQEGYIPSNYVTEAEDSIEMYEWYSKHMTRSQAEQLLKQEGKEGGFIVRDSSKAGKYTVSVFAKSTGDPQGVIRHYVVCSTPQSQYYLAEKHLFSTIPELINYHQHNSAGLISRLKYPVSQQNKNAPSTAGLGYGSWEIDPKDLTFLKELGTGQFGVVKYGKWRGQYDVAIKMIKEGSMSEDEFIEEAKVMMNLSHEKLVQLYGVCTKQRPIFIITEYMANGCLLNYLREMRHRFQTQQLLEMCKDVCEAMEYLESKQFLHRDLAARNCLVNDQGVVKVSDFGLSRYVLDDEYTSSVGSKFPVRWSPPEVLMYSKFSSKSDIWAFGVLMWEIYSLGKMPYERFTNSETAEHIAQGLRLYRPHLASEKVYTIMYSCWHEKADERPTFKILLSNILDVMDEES
T1 sequence (Q06187 2-659 C481S limits assumed): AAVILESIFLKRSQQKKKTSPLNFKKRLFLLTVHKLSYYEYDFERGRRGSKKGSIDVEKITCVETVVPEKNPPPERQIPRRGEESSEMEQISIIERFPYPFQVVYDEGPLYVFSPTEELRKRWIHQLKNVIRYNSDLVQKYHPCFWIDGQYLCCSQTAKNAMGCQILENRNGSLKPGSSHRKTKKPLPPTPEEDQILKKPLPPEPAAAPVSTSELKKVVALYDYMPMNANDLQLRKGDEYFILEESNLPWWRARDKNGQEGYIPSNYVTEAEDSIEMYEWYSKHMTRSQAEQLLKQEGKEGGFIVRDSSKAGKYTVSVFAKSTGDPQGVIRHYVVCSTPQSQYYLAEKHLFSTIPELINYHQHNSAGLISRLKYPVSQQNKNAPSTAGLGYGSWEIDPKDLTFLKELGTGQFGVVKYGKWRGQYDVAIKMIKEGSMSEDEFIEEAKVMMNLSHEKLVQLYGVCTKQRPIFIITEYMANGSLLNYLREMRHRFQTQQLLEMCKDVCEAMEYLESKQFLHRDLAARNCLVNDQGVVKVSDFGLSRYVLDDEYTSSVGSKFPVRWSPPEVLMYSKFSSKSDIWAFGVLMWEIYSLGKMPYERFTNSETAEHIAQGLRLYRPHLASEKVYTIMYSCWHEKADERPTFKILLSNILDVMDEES
Protein cereblon/Tyrosine-protein kinase BTK, sequence (Q06187 whole entry): as the sequence (Q06187 whole entry) above
Protein cereblon/Tyrosine-protein kinase BTK, sequence (Q96SW2 whole entry): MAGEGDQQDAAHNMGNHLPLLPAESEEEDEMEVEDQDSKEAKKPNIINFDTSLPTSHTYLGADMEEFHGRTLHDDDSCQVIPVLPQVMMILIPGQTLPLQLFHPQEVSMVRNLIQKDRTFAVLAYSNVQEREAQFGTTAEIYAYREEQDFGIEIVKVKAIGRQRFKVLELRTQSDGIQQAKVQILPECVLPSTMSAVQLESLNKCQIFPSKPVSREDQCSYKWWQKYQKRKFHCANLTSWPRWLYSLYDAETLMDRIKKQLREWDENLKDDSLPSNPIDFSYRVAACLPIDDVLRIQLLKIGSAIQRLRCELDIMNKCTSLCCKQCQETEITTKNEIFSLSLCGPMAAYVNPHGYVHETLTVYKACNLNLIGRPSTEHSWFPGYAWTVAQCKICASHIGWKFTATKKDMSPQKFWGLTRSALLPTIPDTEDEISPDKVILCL
von Hippel-Lindau disease tumor suppressor/Tyrosine-protein kinase BTK, sequence (Q06187 whole entry): as the sequence (Q06187 whole entry) above
von Hippel-Lindau disease tumor suppressor/Tyrosine-protein kinase BTK, sequence (P40337 whole entry): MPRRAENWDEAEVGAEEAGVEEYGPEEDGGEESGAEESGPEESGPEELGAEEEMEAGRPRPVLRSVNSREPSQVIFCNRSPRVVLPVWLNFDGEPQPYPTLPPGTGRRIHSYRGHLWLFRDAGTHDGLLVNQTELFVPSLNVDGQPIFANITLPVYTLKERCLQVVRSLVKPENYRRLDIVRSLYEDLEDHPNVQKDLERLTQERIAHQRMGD

For orientation: IC50 means the concentration at which inhibition is half-maximal. A high value points to lower potency. With `O=C(c1ccc(Oc2ccccc2)cc1Cl)c1c[nH]c2ncnc(N[C@H]3CCC[C@H](CO)O3)c12`, the IC50 in data set [1] turned out to be 0.39 nM; in [2] it was 0.85 nM.
In the case of `Nc1nccn2c([C@@H]3CC[C@H]4CN(CCO)CC(=O)N4C3)nc(-c3ccc(C(=O)Nc4cc(C(F)(F)F)ccn4)cc3)c12`, the IC50 in data set [3] worked out at 0.1 nM.
A word on the GI50: it is the concentration giving 50% growth inhibition. For orientation: DC50 means the midpoint of the concentration-degradation curve. Turning to `Nc1ncnc2c1c(-c1ccc(Oc3ccccc3)cc1)nn2[C@@H]1CCCN(Cc2cn(CCOCCOCCOCCNc3cccc4c3CN(C3CCC(=O)NC3=O)C4=O)nn2)C1` (stereo partly drawn), the GI50 in [4] came to 30 nM. Further, in data set [5], the DC50 is 29 nM.
In data set [6], `Cc1cc(C(N)=O)c2[nH]c3cc(C(C)(C)O)ccc3c2c1-c1cccc(-n2c(=O)[nH]c3c(F)cccc3c2=O)c1O` yielded an IC50 of 0.3 nM.
Consider `Nc1ncnc2c1c(-c1ccc(Oc3ccccc3)cc1)nn2C1CCN(CCOCCOCCOc2ccc3c(c2)CN(C2CCC(=O)NC2=O)C3=O)CC1` (stereo not drawn), for which the DC50 in [7] is 7.9 nM.
As a reminder, the CLint scaled is the rate of metabolic loss divided by the concentration. A low value points to slow turnover. `Nc1ncnc2c1c(-c1ccc(Oc3ccccc3)cc1)nn2C1CCN(CCOCCOCC(=O)Nc2ccc3c(c2)C(=O)N(C2CCC(=O)NC2=O)C3=O)CC1` (stereo not drawn) registered a CLint scaled in data set [8] of 1660 mL/min/kg.
`Nc1ncnc2c1c(-c1ccc(Oc3ccccc3)cc1)nn2[C@@H]1CCCN(C(=O)c2cn(CCOCCOCCOCCNc3cccc4c3C(=O)N(C3CCC(=O)NC3=O)C4=O)nn2)C1` (stereo partly drawn): the GI50 in data set [4] came out at 28 nM. Further, the DC50 in data set [5] came out at 6.3 nM. Further, the Activity in [9] was 89%; in data set [10] it was 73%.
`COc1cc(Nc2c(C#N)cnc3cc(OCCCN4CCN(CCOCCOCCNc5cccc6c5C(=O)N(C5CCC(=O)NC5=O)C6=O)CC4)c(OC)cc23)c(Cl)cc1Cl` (stereo not drawn): the DC50 in [11] turned out to be 30 nM.

The values are drawn from ChEMBL document CHEMBL5120879, “Medicinal Chemistry Strategies for the Development of Bruton's Tyrosine Kinase Inhibitors against Resistance” (J Med Chem, 2022).
